Measurements taken from paper PMC3340406, “Molecular and Functional Characterization of Novel Fructosyltransferases and Invertases from Agave tequilana” (PLoS ONE, 2012).

Experiments:
Assay type in all cases: biochemical
Atq6G-FFT-1 = molecular target: T1, Atq6G-FFT-1 (Agave tequilana, UniProt I1ZBQ0); test: HPAEC-PAD product analysis; conditions: 50 mM 1-kestose (stock contains some sucrose and nystose), 50 mM sodium acetate pH 5.5, 30 °C; 20 µg total protein extract
T1 construct: gene FFT1; mature region, signal peptide (34 aa) removed, His-tagged, secreted from Pichia pastoris X-33 (pPICZalphaA); full length 627 aa; about 80 kDa on gel
T1 sequence (I1ZBQ0 35-627): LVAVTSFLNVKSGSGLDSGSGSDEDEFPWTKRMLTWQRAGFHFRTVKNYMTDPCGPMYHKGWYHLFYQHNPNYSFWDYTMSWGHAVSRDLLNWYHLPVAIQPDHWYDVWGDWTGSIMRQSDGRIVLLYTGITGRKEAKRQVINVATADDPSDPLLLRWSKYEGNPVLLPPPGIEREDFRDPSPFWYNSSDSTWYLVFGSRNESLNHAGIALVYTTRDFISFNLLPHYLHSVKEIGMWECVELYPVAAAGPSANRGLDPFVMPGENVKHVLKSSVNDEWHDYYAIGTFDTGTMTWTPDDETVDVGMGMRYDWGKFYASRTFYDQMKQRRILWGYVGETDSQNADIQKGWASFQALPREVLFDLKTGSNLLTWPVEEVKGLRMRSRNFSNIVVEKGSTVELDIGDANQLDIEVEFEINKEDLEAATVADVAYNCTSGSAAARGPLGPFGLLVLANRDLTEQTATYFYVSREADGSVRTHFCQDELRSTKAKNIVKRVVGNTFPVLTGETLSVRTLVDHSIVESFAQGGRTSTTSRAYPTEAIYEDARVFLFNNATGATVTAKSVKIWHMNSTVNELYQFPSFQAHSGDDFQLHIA

AtqCwinv-1 [1] = molecular target: T2, AtqCwinv-1 (Agave tequilana, UniProt I1ZBQ2); test: HPAEC-PAD, exohydrolase activity; conditions: 100 mM 1-kestose, 50 mM sodium acetate pH 4.3, 30 °C; 10 µg affinity purified protein
T2 construct: gene Cwinv1; mature region, signal peptide (24 aa) removed, His-tagged, secreted from Pichia pastoris X-33 (pPICZalphaA); full length 575 aa; about 75 kDa on gel
T2 sequence (I1ZBQ2 25-575): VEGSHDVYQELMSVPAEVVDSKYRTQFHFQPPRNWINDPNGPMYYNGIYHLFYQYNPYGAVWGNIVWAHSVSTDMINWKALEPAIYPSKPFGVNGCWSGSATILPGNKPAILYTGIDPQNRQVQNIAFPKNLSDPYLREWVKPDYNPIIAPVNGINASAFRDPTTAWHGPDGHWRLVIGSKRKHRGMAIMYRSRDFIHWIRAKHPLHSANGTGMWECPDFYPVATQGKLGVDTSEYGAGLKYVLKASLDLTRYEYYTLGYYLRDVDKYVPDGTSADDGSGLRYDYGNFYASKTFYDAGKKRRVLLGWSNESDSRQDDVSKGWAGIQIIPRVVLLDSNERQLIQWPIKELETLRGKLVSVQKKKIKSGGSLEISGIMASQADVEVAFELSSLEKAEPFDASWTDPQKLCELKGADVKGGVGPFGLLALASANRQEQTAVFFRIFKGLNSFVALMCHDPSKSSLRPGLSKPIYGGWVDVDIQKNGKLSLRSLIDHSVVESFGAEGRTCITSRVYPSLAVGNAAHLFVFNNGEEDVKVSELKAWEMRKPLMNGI

AtqCwinv-1 [2] = molecular target: T2, AtqCwinv-1; test: TLC and HPAEC-PAD, sucrose hydrolysis; conditions: 100 mM sucrose, 50 mM sodium acetate pH 4.3, 30 °C; 10 µg affinity purified protein

SMILES	HPAEC-PAD product analysis (Atq6G-FFT-1)	HPAEC-PAD, exohydrolase activity (AtqCwinv-1 [1])	TLC and HPAEC-PAD, sucrose hydrolysis (AtqCwinv-1 [2])
OC[C@H]1O[C@@](CO)(OC[C@@]2(O[C@H]3O[C@H](CO)[C@@H](O)[C@H](O)[C@H]3O)O[C@H](CO)[C@@H](O)[C@@H]2O)[C@@H](O)[C@@H]1O [1-kestose]	1-kestose was used as substrate no neokestose was produced but a tetrasaccharide 4c molecule	some exohydrolytic activity occurred when sucrose was replaced by 1-kestose as substrate	–
OC[C@H]1O[C@@](CO)(O[C@H]2O[C@H](CO)[C@@H](O)[C@H](O)[C@H]2O)[C@@H](O)[C@@H]1O [sucrose]	–	–	AtqCwinv-1 produced fructose and glucose when incubated with sucrose as the sole substrate
